Values of other authors, collected in patent publication US20150306063A1, “COMPOSITION AND METHOD FOR VAGINAL THERAPY” (priority 2014, published 2015).

Conditions: elderly patients, including patients older than 65 years of age

Question: With `COc1ccccc1OCC(O)COC(N)=O` (stereo not shown) [Methocarbamol, 3-(2-methoxyphenoxy)-1,2-propanediol 1-carbamate] as the compound, how does the “half-life in the elderly as compared with a younger population” value read?
Answer: only slightly prolonged
